Experimental data published in PubChem BioAssay (NCI).
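Grown in 96-well plates, cells were treated for 48 hours with each compound at five concentrations. Insufficient inhibition: endpoint recorded as highest concentration tested. GI50: concentration for 50% inhibition of growth. The concentration for full growth arrest is given as TGI.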

Columns and labels:
Assay in all cases: DTP human tumour cell line panel, 48 h
[1] = tested on: 786-0 renal
[2] = tested on: A498 renal
[3] = tested on: A549 NSCLC
[4] = tested on: ACHN renal
[5] = tested on: BT-549 breast
[6] = tested on: CAKI-1 renal
[7] = tested on: CCRF-CEM leukemia
[8] = tested on: COLO 205 colon
[9] = tested on: DU-145 prostate
[10] = tested on: HCC-2998 colon
[11] = tested on: HCT-116 colon
[12] = tested on: HCT-15 colon
[13] = tested on: HL-60(TB) leukemia
[14] = tested on: HOP-62 NSCLC
[15] = tested on: HOP-92 NSCLC
[16] = tested on: HS 578T breast
[17] = tested on: HT29 colon
[18] = tested on: IGROV1 ovarian
[19] = tested on: K-562 leukemia
[20] = tested on: KM12 colon
[21] = tested on: LOX IMVI melanoma
[22] = tested on: M14 melanoma
[23] = tested on: MALME-3M melanoma
[24] = tested on: MCF7 breast
[25] = tested on: MDA-MB-231 breast
[26] = tested on: MDA-MB-435
[27] = tested on: MOLT-4 leukemia
[28] = tested on: NCI-H226 lung
[29] = tested on: NCI-H23 lung
[30] = tested on: NCI-H460 lung
[31] = tested on: NCI-H522 lung
[32] = tested on: NCI/ADR-RES ovarian
[33] = tested on: OVCAR-3 ovarian
[34] = tested on: OVCAR-5 ovarian
[35] = tested on: OVCAR-8 ovarian
[36] = tested on: PC-3 prostate
[37] = tested on: RXF 393 renal
[38] = tested on: SF-268 CNS
[39] = tested on: SF-295 CNS
[40] = tested on: SF-539 CNS
[41] = tested on: SK-MEL-2 melanoma
[42] = tested on: SK-MEL-28 melanoma
[43] = tested on: SK-MEL-5 melanoma
[44] = tested on: SK-OV-3 ovarian
[45] = tested on: SN12C renal
[46] = tested on: SNB-19 CNS
[47] = tested on: SNB-75 CNS
[48] = tested on: SR leukemia
[49] = tested on: SW-620 colon
[50] = tested on: T-47D breast
[51] = tested on: TK-10 renal
[52] = tested on: U251 CNS
[53] = tested on: UACC-257 melanoma
[54] = tested on: UACC-62 melanoma
[55] = tested on: UO-31 renal
[56] = tested on: EKVX NSCLC
[57] = tested on: OVCAR-4 ovarian
[58] = tested on: RPMI-8226 leukemia

Which results are given for `CCC(=O)Oc1cc(/C=C/C(=O)O[C@H]2C[C@H]3CN4CCc5c([nH]c6cc(OC)ccc56)[C@@H]4C[C@@H]3[C@@H](C(=O)OC)[C@@H]2OC)ccc1OC`?
GI50 [1]: 7.26 µM; TGI [1]: > 100 µM; GI50 [2]: 1.94 µM; TGI [2]: 9.9 µM; GI50 [3]: 21.6 µM; TGI [3]: > 100 µM; GI50 [4]: 5.34 µM; TGI [4]: > 100 µM; GI50 [5]: 7.53 µM; TGI [5]: 62.4 µM; GI50 [6]: 3.22 µM; TGI [6]: > 100 µM; GI50 [7]: 3.75 µM; TGI [7]: > 100 µM; GI50 [8]: 4.57 µM; TGI [8]: 17.7 µM; GI50 [9]: 18 µM; TGI [9]: > 100 µM; GI50 [10]: 47.1 µM; TGI [10]: > 100 µM; GI50 [11]: 9.11 µM; TGI [11]: 78.9 µM; GI50 [12]: 5.7 µM; TGI [12]: 23.8 µM; GI50 [13]: 3.7 µM; TGI [13]: 26.9 µM; GI50 [14]: 25.2 µM; TGI [14]: > 100 µM; GI50 [15]: 1.58 µM; TGI [15]: 11.5 µM; GI50 [16]: 5.3 µM; TGI [16]: > 100 µM; GI50 [17]: 3.37 µM; TGI [17]: 11.9 µM; GI50 [18]: 14.1 µM; TGI [18]: 75.8 µM; GI50 [19]: 4.06 µM; TGI [19]: > 100 µM; GI50 [20]: 18.7 µM; TGI [20]: > 100 µM; GI50 [21]: 13.1 µM; TGI [21]: 55.1 µM; GI50 [22]: 13.1 µM; TGI [22]: > 100 µM; GI50 [23]: 6.75 µM; TGI [23]: 29 µM; GI50 [24]: 5.16 µM; TGI [24]: 24.3 µM; GI50 [25]: 5 µM; TGI [25]: 28.4 µM; GI50 [26]: 12 µM; TGI [26]: 29.2 µM; GI50 [27]: 3.87 µM; TGI [27]: > 100 µM; GI50 [28]: 11.8 µM; TGI [28]: > 100 µM; GI50 [29]: 20.5 µM; TGI [29]: > 100 µM; GI50 [30]: 28.6 µM; TGI [30]: > 100 µM; GI50 [31]: 16.2 µM; TGI [31]: 33.6 µM; GI50 [32]: 20.5 µM; TGI [32]: > 100 µM; GI50 [33]: 7.3 µM; TGI [33]: 67.5 µM; GI50 [34]: 40.4 µM; TGI [34]: > 100 µM; GI50 [35]: 19.7 µM; TGI [35]: > 100 µM; GI50 [36]: 15 µM; TGI [36]: > 100 µM; GI50 [37]: 3.68 µM; TGI [37]: 17.4 µM; GI50 [38]: 14.1 µM; TGI [38]: > 100 µM; GI50 [39]: 31 µM; TGI [39]: > 100 µM; GI50 [40]: 12.3 µM; TGI [40]: 30.9 µM; GI50 [41]: 17.6 µM; TGI [41]: 36.6 µM; GI50 [42]: 13.6 µM; TGI [42]: 35.2 µM; GI50 [43]: 13 µM; TGI [43]: 28.5 µM; GI50 [44]: 59 µM; TGI [44]: > 100 µM; GI50 [45]: 12 µM; TGI [45]: > 100 µM; GI50 [46]: 22.4 µM; TGI [46]: > 100 µM; GI50 [47]: 3.74 µM; TGI [47]: 26.8 µM; GI50 [48]: 2.27 µM; TGI [48]: > 100 µM; GI50 [49]: 15.9 µM; TGI [49]: > 100 µM; GI50 [50]: 10.8 µM; TGI [50]: 41.2 µM; GI50 [51]: 14 µM; TGI [51]: 45.1 µM; GI50 [52]: 9.67 µM; TGI [52]: 88.1 µM; GI50 [53]: 15 µM; TGI [53]: > 100 µM; GI50 [54]: 12.1 µM; TGI [54]: 29.5 µM; GI50 [55]: 4.82 µM; TGI [55]: > 100 µM

How did the TGI [1] turn out when `C[n+]1cn(-c2ccc([N+](=O)[O-])cn2)c2ccccc21` was run?
The TGI was greater than 100 µM.

And the TGI [2]?
Its TGI is greater than 100 µM.

And the TGI [3]?
Its TGI is greater than 100 µM.

And the TGI [4]?
Its TGI is greater than 100 µM.

What about the TGI [5] of the same molecule?
Its TGI is greater than 100 µM.

And the TGI [6]?
The TGI was greater than 100 µM.

And the TGI [7]?
Its TGI is greater than 100 µM.

And the TGI [8]?
Its TGI is greater than 100 µM.

And the TGI [9]?
Its TGI is greater than 100 µM.

And the TGI [56]?
Its TGI is greater than 100 µM.

What about the TGI [10] of the same molecule?
Its TGI is greater than 100 µM.

What about the TGI [11] of the same molecule?
Its TGI is greater than 100 µM.

And the TGI [12]?
The TGI was greater than 100 µM.

And the TGI [13]?
The TGI was greater than 100 µM.

And the TGI [14]?
The TGI was greater than 100 µM.

And the TGI [15]?
Its TGI is greater than 100 µM.

What about the TGI [16] of the same molecule?
Its TGI is greater than 100 µM.

And the TGI [17]?
The TGI was greater than 100 µM.

What about the TGI [18] of the same molecule?
The TGI was greater than 100 µM.

And the TGI [19]?
The TGI was greater than 100 µM.

What about the TGI [20] of the same molecule?
Its TGI is greater than 100 µM.

And the TGI [21]?
The TGI was greater than 100 µM.

And the TGI [22]?
Its TGI is greater than 100 µM.

What about the TGI [23] of the same molecule?
The TGI was greater than 100 µM.

What about the TGI [24] of the same molecule?
Its TGI is greater than 100 µM.

And the TGI [25]?
The TGI was greater than 100 µM.

And the TGI [26]?
Its TGI is greater than 100 µM.

What about the TGI [27] of the same molecule?
The TGI was greater than 100 µM.

And the TGI [28]?
The TGI was greater than 100 µM.

And the TGI [29]?
The TGI was greater than 100 µM.

And the TGI [30]?
The TGI was greater than 100 µM.

And the TGI [32]?
The TGI was greater than 100 µM.

And the TGI [33]?
The TGI was greater than 100 µM.

What about the TGI [57] of the same molecule?
Its TGI is greater than 100 µM.

What about the TGI [34] of the same molecule?
Its TGI is greater than 100 µM.

What about the TGI [35] of the same molecule?
The TGI was greater than 100 µM.

What about the TGI [36] of the same molecule?
The TGI was greater than 100 µM.

What about the TGI [58] of the same molecule?
Its TGI is greater than 100 µM.

What about the TGI [37] of the same molecule?
Its TGI is greater than 100 µM.

And the TGI [38]?
Its TGI is greater than 100 µM.

And the TGI [39]?
Its TGI is greater than 100 µM.

And the TGI [40]?
Its TGI is greater than 100 µM.

What about the TGI [41] of the same molecule?
Its TGI is greater than 100 µM.

And the TGI [42]?
The TGI was greater than 100 µM.

What about the TGI [43] of the same molecule?
Its TGI is greater than 100 µM.

What about the TGI [44] of the same molecule?
Its TGI is greater than 100 µM.

And the TGI [46]?
Its TGI is greater than 100 µM.

And the TGI [47]?
The TGI was greater than 100 µM.

And the TGI [48]?
The TGI was greater than 100 µM.

And the TGI [49]?
Its TGI is greater than 100 µM.

And the TGI [50]?
The TGI was greater than 100 µM.

And the TGI [51]?
Its TGI is greater than 100 µM.

What about the TGI [52] of the same molecule?
Its TGI is greater than 100 µM.

What about the TGI [53] of the same molecule?
Its TGI is greater than 100 µM.

And the TGI [54]?
The TGI was greater than 100 µM.

What about the TGI [55] of the same molecule?
The TGI was greater than 100 µM.
